Assay results reported in patent US20160303137A1, “DUAL PI3K AND WNT PATHWAY INHIBITION AS A TREATMENT FOR CANCER” (Indiana University Research and Technology Corporation, priority 2015, published 2016).
Like-named read-outs stand apart in the source and are kept apart here.

Columns and labels:
TMD-231 lung metastases = test: Lung metastases quantification (Ki67), TMD-231 model; assay type: in vivo, NSG mice; conditions: Ki67 positive pixels in lung sections; Buparlisib 30 mg/kg, WNT974 3 mg/kg
Protocol: For the pharmacodynamic studies, NSG mice were implanted with TMD-231 TNBC cells into the mammary fat pad of 24 NSG mice (6 mice per group: Vehicle, Buparlisib, WNT974, Buparlisib+WNT974). The TMD-231 cell line is a variant of the MDA-MB-231 cell line that metastasizes to the lung. Tumors were allowed to grow for 29 days to an average size of approximately 350 mm^3 prior to dosing. To validate compound-mediated modulation of the PI3K/mTOR and Wnt signaling pathways, mice were dosed once-a-day with vehicle, Buparlisib (30 mg/kg), WNT974 (3 mg/kg), or the combination for 7 days, with intermittent tumor measurements. […] To quantify lung metastases, lungs were extracted, fixed in 10% formalin, and processed in paraffin. Five-micrometer sections were H&E stained, deparaffinized, blocked, and stained using primary anti-human Ki67 antibody (DAKO, Carpinteria, Calif.). The Aperio whole slide digital imaging system was used for imaging (Leica, Wetzlar, Germany). Using the Aperio ScanScope CS, 20× images were taken at scan times ranging from 1.5 to 2.25 minutes. The total nuclear labeling index (Ki67) was generated using the Aperio ImageScope standard positive pixel algorithm. The Image Analysis software was used to calculate the percent of positive pixels (brown staining) in one large cross section from each lung.

Porcupine = biological target: T1, Porcupine (Homo sapiens, UniProt Q9H237); conditions: recently published data; cited from earlier work
T1 sequence (Q9H237 1-461): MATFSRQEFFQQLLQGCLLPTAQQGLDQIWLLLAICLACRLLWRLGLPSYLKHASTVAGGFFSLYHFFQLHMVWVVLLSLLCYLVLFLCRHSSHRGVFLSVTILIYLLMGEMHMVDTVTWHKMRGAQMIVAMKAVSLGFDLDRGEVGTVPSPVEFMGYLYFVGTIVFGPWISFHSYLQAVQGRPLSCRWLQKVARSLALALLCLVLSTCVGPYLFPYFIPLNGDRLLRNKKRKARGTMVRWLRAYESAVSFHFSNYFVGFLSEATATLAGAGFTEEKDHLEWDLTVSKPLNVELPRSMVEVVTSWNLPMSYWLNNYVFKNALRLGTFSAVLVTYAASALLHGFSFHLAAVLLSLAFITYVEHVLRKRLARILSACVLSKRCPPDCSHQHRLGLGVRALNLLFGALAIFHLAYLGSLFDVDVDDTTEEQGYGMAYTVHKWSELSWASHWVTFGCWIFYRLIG

Phospho-AKT = test: pAKT western blot on TMD-231 tumors (PD study); assay type: in vivo, NSG mice; conditions: 7 days once-a-day; Buparlisib 30 mg/kg, WNT974 3 mg/kg
Protocol: (§1) For Western Blot analysis, target modulation was assessed using qPCR for Axin2 (a marker of WNT974), and western blot for Porcupine and Phospho-Akt […] (a marker of Buparlisib activity). qPCR was performed using Taqman assays (Life Technologies). For western blotting, protein was isolated using RIPA buffer and quantified with BCA assay (Thermo Fisher). Protein was run on Bis-Tris gels (Life Technologies) and transferred to PVDF. Primary pAKT-[…] antibody (Cell Signaling Technology, Beverly, Mass.), β-actin (Cell Signaling Technology), and PORCN (Abcam, Cambridge, England) were incubated overnight with subsequent 1 hour incubation with HRP-conjugate secondary antibody. Staining was performed using a chemiluminescent substrate (ThermoFisher). Imaging was performed using an LAS-4000 Luminescent Image Analyzer (Fujifilm, Tokyo, Japan).

tumor growth = conditions: recently published data; cited from earlier work
[1] = Quantification of drug in resected tumors (PD study); assay type: in vivo, NSG mice; conditions: tumors resected 1 hour and 7 hours after last dose, day 7; HPLC-MS/MS
TMD-231 TNBC cells = test: Pharmacodynamic study, TMD-231 xenograft tumor volume; assay type: in vivo, NSG mice; conditions: single agent, 7 days once-a-day; Buparlisib 30 mg/kg, WNT974 3 mg/kg
Protocol: For the pharmacodynamic studies, NSG mice were implanted with TMD-231 TNBC cells into the mammary fat pad of 24 NSG mice (6 mice per group: Vehicle, Buparlisib, WNT974, Buparlisib+WNT974). The TMD-231 cell line is a variant of the MDA-MB-231 cell line that metastasizes to the lung. Tumors were allowed to grow for 29 days to an average size of approximately 350 mm^3 prior to dosing. To validate compound-mediated modulation of the PI3K/mTOR and Wnt signaling pathways, mice were dosed once-a-day with vehicle, Buparlisib (30 mg/kg), WNT974 (3 mg/kg), or the combination for 7 days, with intermittent tumor measurements.

[2] = test system: TNBC patient derived xenograft (PDX) (ID: BR0901); test: TNBC PDX study, survival; assay type: in vivo, NSG mice; conditions: n=10 per group, once-a-day max 28 days; Buparlisib 30 mg/kg, WNT974 3 mg/kg
Protocol: NSG mice were trochar implanted in the right hind flank with a passage 1-4, 5 mm^3 TNBC patient derived xenograft (PDX) (ID: BR0901) at The Jackson Laboratory (The Jackson Laboratory, Bar Harbor, Maine). […] 40 TNBC PDX implanted mice were used (10 mice per group: Vehicle, Buparlisib (30 mg/kg), WNT974 (3 mg/kg), and Buparlisib+WNT974). Tumors were grown to an average of 70-150 mm^3 and mice averaged 22.5 grams body weight. Mice were dosed once-a-day for a maximum of 28 days. Tumor measurements were made two times a week. Mice whose tumors reached a size of 1500 mm^3 were euthanized per IACUC protocol.

[3] = In vivo single-dose PK, plasma HPLC-MS/MS; design: species or system NSG mice; conditions: for AUC(0-inf) / Cmax / Tmax / half-life / Vd/F: NOD-scid IL2Rgamma-null (NSG), mouse, po; for Vd/F: read-out: Vdss/F; for Cl/F: single dose po
Protocol: For pharmacokinetic studies, NOD-scid IL2Rgamma-null (NSG) mice were obtained from the In Vivo Therapeutics (IVT) Core at the Indiana University School of Medicine and given a single dose of Buparlisib, WNT974, or the combination at pre-established concentrations of 30 mg/kg and 3 mg/kg respectively. This experiment employed 45 NSG mice (n=15 for each group). Plasma was drawn from 3 mice from each group at 0.5, 1, 2, 6, and 24 hours post dosage. Buparlisib and WNT974 were quantified in the plasma using high-performance liquid chromatography-mass spectrometry (HPLC-MS/MS). Pharmacokinetic (PK) parameters for Buparlisib and WNT974 including area under the curve (AUC), area under the moment curve (AUMC), and half-life (t½) were estimated using non-compartmental methods with Excel and WinNonlin v 2.0 (Certara, Princeton, N.J.). The maximum plasma concentration (Cmax) and time of Cmax (tmax) was calculated from the data. The systemic clearance (Cl/F, where F=bioavailability) of each drug was calculated from the dose and AUC0-∝The apparent volume of distribution (Vdss/F) was estimated from the Cl/F and mean residence time. The single-agent pharmacokinetic parameters were compared to the drug combination parameters to determine whether a drug-drug interaction exists.

[4] = known; cited from earlier work
AXIN2 RNA = test: Axin2 RNA qPCR on TMD-231 tumors (PD study); assay type: in vivo, NSG mice; conditions: 7 days once-a-day; Buparlisib 30 mg/kg, WNT974 3 mg/kg
Protocol: as §1

Porcupine (PORCN) = test: Western blot of Porcupine in TNBC cell lines; assay type: cell-based; conditions: MDA-MB-231, HCC70, HCC1143; 1 μM or 10 μM; 72 hours
Protocol: as §1, with “Japan). Three TNBC cell lines: MDA-MB-231, HCC70, and HCC1143 were treated with either 0, 1 μM or 10 μM Buparlisib. After 72 hours, protein was isolated and PORCN and pAKT expression was observed.” for “Japan).”

[5] = test system: phosphorylated-AKT (p-AKT Ser 473); test: Western blot of phospho-AKT in TNBC cell lines; assay type: cell-based; conditions: MDA-MB-231, HCC70, HCC1143; 1 μM or 10 μM; 72 hours
Protocol: as §1, with “Japan). Three TNBC cell lines: MDA-MB-231, HCC70, and HCC1143 were treated with either 0, 1 μM or 10 μM Buparlisib. After 72 hours, protein was isolated and PORCN and pAKT expression was observed.” for “Japan).”

[6] = test system: Wnt pathway genes incl. Porcupine (PORCN); test: RNA-seq of MDA-MB-231 before and after Buparlisib treatment; assay type: cell-based, human; conditions: MDA-MB-231, RNA-seq after vs before treatment
Protocol: RNA-sequencing for the Buparlisib treated MDA-MB-231 cell line experiment was performed as follows. To enrich for the non-ribosomal RNA transcriptome, RNA samples were first depleted of ribosomal RNA using the Low Input Ribominus Kit (Life Technologies). ERCC spike-in controls (Pool 1) were introduced for all samples (Life Technologies). RNA libraries were constructed using the Ion Total RNA-Seq Kit for AB Library Builder System (Life Technologies) per manufacturer's instructions. Libraries were barcoded using the IonXpress RNA-Seq Barcode 1-16 Kit (Life Technologies), and libraries were quantified using the Agilent TapeStation 2200 along with the DNA D1K Kit. Libraries were diluted to a concentration of 11 picomolar prior to templating and emulsion PCR using the Ion Template OT2 200 v2 kit along with Ion OneTouch 2 instrument (Life Technologies). Templates were quantified using the IonSphere Quality Control Kit (Life Technologies). Samples were sequenced on an Ion Proton Next-Generation Sequencer using the Ion Proton PI chip and the Ion PI Sequencing 200 v2 kit (Life Technologies). Samples were sequenced using 2 RNA-seq libraries/samples per chip to an average of 30-40 million reads per sample. Reads were mapped to the human genome (hg19) using the STAR algorithm (Dobin et al. Bioinformatics 29, 15-21 (2013)). Aligned BAM files were then imported into Partek Genomics Suite. […]

[7] = drug given alone, Buparlisib 30 mg/Kg, WNT974 3 mg/Kg
[8] = measured drug given in combination with the other, Buparlisib 30 mg/Kg + WNT974 3 mg/Kg

SMILES | lung metastases compared with the control group (TMD-231 lung metastases) | Inhibition of Phospho-AKT in tumors (Phospho-AKT) | drug concentrations in tumor tissue [1] | tumor volume change (in words) (TMD-231 TNBC cells) | mice survived to the end of the study [2] | AUC(0-inf) [3, 7] | Cmax [3, 7] | Tmax [3, 7] | half-life [3, 7] | Vd/F [3, 7] | AUC(0-inf) [3, 8] | Cmax [3, 8] | Tmax [3, 8] | half-life [3, 8] | Vd/F [3, 8] | Cl/F [3, 7] | Cl/F [3, 8] | toxicity / most common side effect in humans [4] | Axin2 RNA expression in tumors (AXIN2 RNA) | further results
Cc1cc(-c2ncc(CC(=O)Nc3ccc(-c4cnccn4)cn3)cc2C)ccn1 [WNT974, 2-[5-methyl-6-(2-methylpyridin-4-yl)pyridin-3-yl]-N-(5-pyrazin-2-ylpyridin-2-yl)acetamide] | small but non-significant decreases | not | reaching the tumor | grew slightly | 0% | 636 ng·h/mL | 165 ng/mL | 1 h | 2.1 h | 0.24 L | 621 ng·h/mL | 143 ng/mL | 1 h | 3 h | 0.4 L | 0.081 L/h | 0.087 L/h | dysgeusia | decrease | inhibition of its target (Porcupine): potent inhibition; inhibition of tumor growth in vivo (tumor growth): significant inhibition
Nc1cc(C(F)(F)F)c(-c2cc(N3CCOCC3)nc(N3CCOCC3)n2)cn1 [Buparlisib, 5-(2,6-di-4-morpholinyl-4-pyrimidinyl)-4-(trifluoromethyl)-2-pyridinamine] | small but non-significant decreases | observed | reaching the tumor | grew slightly | 40% | 16500 ng·h/mL | 2300 ng/mL | 1 h | 3 h | 0.15 L | 15500 ng·h/mL | 2850 ng/mL | 2 h | 2.8 h | 0.16 L | 0.034 L/h | 0.035 L/h | depression, anxiety, pneumonitis, and liver toxicity | no significant change | Porcupine protein expression (Porcupine (PORCN)): increase; phospho-AKT [5]: potent inhibition; expression of Wnt pathway genes [6]: significant increase; Porcupine (PORCN) gene over-expression after treatment ([6]; preliminary data): approximately 8 fold
